Assay results from patent US8192962B2, “Processes for detecting toxic substances” (Daikin Industries, Ltd., priority 2001, dated 2012).

Tested on: Unknown protein yeast genes
Test: DNA chip mRNA expression in yeast, unknown protein yeast genes (Table 1)
Type: cell-based, Saccharomyces cerevisiae S288C
Outline: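 Ratios compare mRNA levels in stressed and control S. cerevisiae. Each toxicant was applied for two hours to log-phase cultures at 25° C. at a sub-lethal, growth-inhibiting level; fluorescent cDNA (Cy3- or Cy5-dUTP) was hybridized to a genome-wide yeast chip for over 12 h at 65° C.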

## C=CC=O [(14), acrolein]
Yeast gene YKL195W, incubated two hours with chemical substance
  The level of expressed mRNA in the presence of chemical substance/The level of expressed mRNA in the absence of chemical substance: 1.6
Yeast gene YKR091W, incubated two hours with chemical substance
  The level of expressed mRNA in the presence of chemical substance/The level of expressed mRNA in the absence of chemical substance: 1.9
Yeast gene YLR054C, incubated two hours with chemical substance
  The level of expressed mRNA in the presence of chemical substance/The level of expressed mRNA in the absence of chemical substance: 1.1
Yeast gene YLR149C, incubated two hours with chemical substance
  The level of expressed mRNA in the presence of chemical substance/The level of expressed mRNA in the absence of chemical substance: 1.2
Yeast gene YLR152C, incubated two hours with chemical substance
  The level of expressed mRNA in the presence of chemical substance/The level of expressed mRNA in the absence of chemical substance: 1.2
Yeast gene YLR194C, incubated two hours with chemical substance
  The level of expressed mRNA in the presence of chemical substance/The level of expressed mRNA in the absence of chemical substance: 1.2
Yeast gene YLR297W
  The level of expressed mRNA in the presence of chemical substance/The level of expressed mRNA in the absence of chemical substance: 2.3
Yeast gene YLR324W, incubated two hours with chemical substance
  The level of expressed mRNA in the presence of chemical substance/The level of expressed mRNA in the absence of chemical substance: 1.4
Yeast gene YLR350W, incubated two hours with chemical substance
  The level of expressed mRNA in the presence of chemical substance/The level of expressed mRNA in the absence of chemical substance: 2.8
Yeast gene YLR387C, incubated two hours with chemical substance
  The level of expressed mRNA in the presence of chemical substance/The level of expressed mRNA in the absence of chemical substance: 1.7
Yeast gene YLR460C
  The level of expressed mRNA in the presence of chemical substance/The level of expressed mRNA in the absence of chemical substance: 3.5
Yeast gene YML117W, incubated two hours with chemical substance
  The level of expressed mRNA in the presence of chemical substance/The level of expressed mRNA in the absence of chemical substance: 0.8
Yeast gene YMR009W, incubated two hours with chemical substance
  The level of expressed mRNA in the presence of chemical substance/The level of expressed mRNA in the absence of chemical substance: 1.9
Yeast gene YMR067C, incubated two hours with chemical substance
  The level of expressed mRNA in the presence of chemical substance/The level of expressed mRNA in the absence of chemical substance: 1.5
Yeast gene YMR090W
  The level of expressed mRNA in the presence of chemical substance/The level of expressed mRNA in the absence of chemical substance: 6.5
Yeast gene YMR095C, incubated two hours with chemical substance
  The level of expressed mRNA in the presence of chemical substance/The level of expressed mRNA in the absence of chemical substance: 2.2
Yeast gene YMR097C, incubated two hours with chemical substance
  The level of expressed mRNA in the presence of chemical substance/The level of expressed mRNA in the absence of chemical substance: 2.1
Yeast gene YMR102C, incubated two hours with chemical substance
  The level of expressed mRNA in the presence of chemical substance/The level of expressed mRNA in the absence of chemical substance: 0.7
Yeast gene YMR107W, incubated two hours with chemical substance
  The level of expressed mRNA in the presence of chemical substance/The level of expressed mRNA in the absence of chemical substance: 8.1
Yeast gene YMR180C, incubated two hours with chemical substance
  The level of expressed mRNA in the presence of chemical substance/The level of expressed mRNA in the absence of chemical substance: 1.7
Yeast gene YMR184W, incubated two hours with chemical substance
  The level of expressed mRNA in the presence of chemical substance/The level of expressed mRNA in the absence of chemical substance: 1.5
Yeast gene YMR191W, incubated two hours with chemical substance
  The level of expressed mRNA in the presence of chemical substance/The level of expressed mRNA in the absence of chemical substance: 1.5
Yeast gene YMR295C, incubated two hours with chemical substance
  The level of expressed mRNA in the presence of chemical substance/The level of expressed mRNA in the absence of chemical substance: 1.3
Yeast gene YMR316W, incubated two hours with chemical substance
  The level of expressed mRNA in the presence of chemical substance/The level of expressed mRNA in the absence of chemical substance: 1.3
Yeast gene YNL044W, incubated two hours with chemical substance
  The level of expressed mRNA in the presence of chemical substance/The level of expressed mRNA in the absence of chemical substance: 1.2
Yeast gene YNL074C, incubated two hours with chemical substance
  The level of expressed mRNA in the presence of chemical substance/The level of expressed mRNA in the absence of chemical substance: 0.6
Yeast gene YNL092W, incubated two hours with chemical substance
  The level of expressed mRNA in the presence of chemical substance/The level of expressed mRNA in the absence of chemical substance: 1.2
Yeast gene YNL115C, incubated two hours with chemical substance
  The level of expressed mRNA in the presence of chemical substance/The level of expressed mRNA in the absence of chemical substance: 1.0
Yeast gene YNL156C, incubated two hours with chemical substance
  The level of expressed mRNA in the presence of chemical substance/The level of expressed mRNA in the absence of chemical substance: 1.4
Yeast gene YNL234W, incubated two hours with chemical substance
  The level of expressed mRNA in the presence of chemical substance/The level of expressed mRNA in the absence of chemical substance: 1.5
Yeast gene YNL281W, incubated two hours with chemical substance
  The level of expressed mRNA in the presence of chemical substance/The level of expressed mRNA in the absence of chemical substance: 1.2
Yeast gene YNL305C, incubated two hours with chemical substance
  The level of expressed mRNA in the presence of chemical substance/The level of expressed mRNA in the absence of chemical substance: 1.3
Yeast gene YNR068C, incubated two hours with chemical substance
  The level of expressed mRNA in the presence of chemical substance/The level of expressed mRNA in the absence of chemical substance: 1.8
Yeast gene YOL032W, incubated two hours with chemical substance
  The level of expressed mRNA in the presence of chemical substance/The level of expressed mRNA in the absence of chemical substance: 1.3
Yeast gene YOL036W, incubated two hours with chemical substance
  The level of expressed mRNA in the presence of chemical substance/The level of expressed mRNA in the absence of chemical substance: 1.0
Yeast gene YOL047C, incubated two hours with chemical substance
  The level of expressed mRNA in the presence of chemical substance/The level of expressed mRNA in the absence of chemical substance: 1.2
Yeast gene YOL071W, incubated two hours with chemical substance
  The level of expressed mRNA in the presence of chemical substance/The level of expressed mRNA in the absence of chemical substance: 2.5
Yeast gene YOL082W, incubated two hours with chemical substance
  The level of expressed mRNA in the presence of chemical substance/The level of expressed mRNA in the absence of chemical substance: 1.4
Yeast gene YOL083W, incubated two hours with chemical substance
  The level of expressed mRNA in the presence of chemical substance/The level of expressed mRNA in the absence of chemical substance: 1.4
Yeast gene YOL117W, incubated two hours with chemical substance
  The level of expressed mRNA in the presence of chemical substance/The level of expressed mRNA in the absence of chemical substance: 1.7
Yeast gene YOL131W, incubated two hours with chemical substance
  The level of expressed mRNA in the presence of chemical substance/The level of expressed mRNA in the absence of chemical substance: 2.3
Yeast gene YOL150C
  The level of expressed mRNA in the presence of chemical substance/The level of expressed mRNA in the absence of chemical substance: 5.7
Yeast gene YOL162W, incubated two hours with chemical substance
  The level of expressed mRNA in the presence of chemical substance/The level of expressed mRNA in the absence of chemical substance: 1.4
Yeast gene YOR019W, incubated two hours with chemical substance
  The level of expressed mRNA in the presence of chemical substance/The level of expressed mRNA in the absence of chemical substance: 1.4
Yeast gene YOR197W, incubated two hours with chemical substance
  The level of expressed mRNA in the presence of chemical substance/The level of expressed mRNA in the absence of chemical substance: 0.7
Yeast gene YPL087W, incubated two hours with chemical substance
  The level of expressed mRNA in the presence of chemical substance/The level of expressed mRNA in the absence of chemical substance: 1.2
Yeast gene YPL196W, incubated two hours with chemical substance
  The level of expressed mRNA in the presence of chemical substance/The level of expressed mRNA in the absence of chemical substance: 1.6
Yeast gene YPL206C, incubated two hours with chemical substance
  The level of expressed mRNA in the presence of chemical substance/The level of expressed mRNA in the absence of chemical substance: 1.1
Yeast gene YPL222W, incubated two hours with chemical substance
  The level of expressed mRNA in the presence of chemical substance/The level of expressed mRNA in the absence of chemical substance: 1.1
Yeast gene YPR023C, incubated two hours with chemical substance
  The level of expressed mRNA in the presence of chemical substance/The level of expressed mRNA in the absence of chemical substance: 0.9
Yeast gene YPR151C, incubated two hours with chemical substance
  The level of expressed mRNA in the presence of chemical substance/The level of expressed mRNA in the absence of chemical substance: 1.4
